These results are taken from patent EP0411182A1, “Ascorbic acid derivative” (NIPPON HYPOX LABORATORIES INCORPORATED, priority 1989, dated 1991).

A short description of this test: Effects on formazan formation in the xanthine-xanthine oxidase-Nitrotetrazolium Blue system. The class given is biochemical. Conditions: for Inhibition ratio (%) of formazan formation: 0.05 M phosphoric acid buffer pH 7.8, 30°C. On the procedure:
Test example 2 (Effects on formazan formation in the xanthine-xanthine oxidase-Nitrotetrazolium Blue system)
Specimens were added to a 0.05 M phosphoric acid buffer solution (pH 7.8) containing xanthine, EDTA 2Na and Nitrotetrazolium Blue (NTB) so as to provide the respective final concentrations of 5x10⁻⁵ M, 1x10⁻⁴ M and 5x10⁻⁴ M and warmed at 30°C for 30 minutes. Xanthine oxidase (manufactured by Sigma Corp.) was added, and the resulting mixtures were warmed at 30°C for 10 minutes to colorimetrically determine formazan formed by superoxide anion radicals. The inhibition ratio of formazan formation was determined from the results at concentrations of 0.5 mM and 4 mM of each specimen.

The structures appear in SMILES notation.

Take `COC(=O)COC1=C(O)[C@@H]([C@@H]2COC(C)(C)O2)OC1=O` [Compound 206, L-5,6-O-isopropylidene-2-O-methylcarbomethylascorbic acid]: the “Inhibition ratio (%) of formazan formation” value is on record as 17.8% (Concentration 0.5 mM) and 55.5% (Concentration 4 mM). Besides, the “formazan formation (result in words)” value (summary of Table-4) is recorded as “remarkably inhibited formazan formation”.
